Test results as given in ChEMBL document CHEMBL5506035, “Discovery of Glutamate Carboxypeptidase III Ligands to Compete the Uptake of [177Lu]Lu-PSMA-617 in Healthy Organs” (J Med Chem, 2024).
Activity calls are given as the source filed them. No cut-off for these calls is given here.

Tests used:
[1] = molecular target: T1, N-acetylated-alpha-linked acidic dipeptidase 2 (Homo sapiens, UniProt Q9Y3Q0); experiment: Binding affinity to human recombinant GCPIII assessed as dissociation constant by fluorescence polarization assay
Target sequence in this assay (Q9Y3Q0 whole entry): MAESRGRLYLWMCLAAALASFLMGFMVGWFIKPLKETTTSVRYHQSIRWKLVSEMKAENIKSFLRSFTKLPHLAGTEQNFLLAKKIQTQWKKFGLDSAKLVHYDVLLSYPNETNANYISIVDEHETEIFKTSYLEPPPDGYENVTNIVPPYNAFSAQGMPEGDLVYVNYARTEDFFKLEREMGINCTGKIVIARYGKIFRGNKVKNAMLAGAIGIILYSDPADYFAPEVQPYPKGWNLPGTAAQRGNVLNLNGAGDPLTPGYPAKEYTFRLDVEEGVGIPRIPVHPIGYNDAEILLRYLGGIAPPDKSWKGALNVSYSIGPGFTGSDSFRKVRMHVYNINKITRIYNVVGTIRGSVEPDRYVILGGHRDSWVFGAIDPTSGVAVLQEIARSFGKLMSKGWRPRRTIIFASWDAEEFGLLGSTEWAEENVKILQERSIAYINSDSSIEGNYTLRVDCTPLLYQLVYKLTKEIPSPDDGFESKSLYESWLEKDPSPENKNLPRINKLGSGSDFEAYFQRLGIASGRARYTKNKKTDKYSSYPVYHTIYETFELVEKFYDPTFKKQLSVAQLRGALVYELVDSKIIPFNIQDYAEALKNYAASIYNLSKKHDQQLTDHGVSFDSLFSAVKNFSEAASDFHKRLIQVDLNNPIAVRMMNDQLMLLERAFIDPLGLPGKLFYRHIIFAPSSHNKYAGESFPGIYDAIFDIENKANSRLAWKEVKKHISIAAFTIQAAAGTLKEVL

[2] = molecular target: T2, Glutamate carboxypeptidase 2 (Homo sapiens, UniProt Q04609); experiment: Binding affinity to human recombinant PSMA assessed as dissociation constant by fluorescence polarization assay
Target sequence in this assay (Q04609 whole entry): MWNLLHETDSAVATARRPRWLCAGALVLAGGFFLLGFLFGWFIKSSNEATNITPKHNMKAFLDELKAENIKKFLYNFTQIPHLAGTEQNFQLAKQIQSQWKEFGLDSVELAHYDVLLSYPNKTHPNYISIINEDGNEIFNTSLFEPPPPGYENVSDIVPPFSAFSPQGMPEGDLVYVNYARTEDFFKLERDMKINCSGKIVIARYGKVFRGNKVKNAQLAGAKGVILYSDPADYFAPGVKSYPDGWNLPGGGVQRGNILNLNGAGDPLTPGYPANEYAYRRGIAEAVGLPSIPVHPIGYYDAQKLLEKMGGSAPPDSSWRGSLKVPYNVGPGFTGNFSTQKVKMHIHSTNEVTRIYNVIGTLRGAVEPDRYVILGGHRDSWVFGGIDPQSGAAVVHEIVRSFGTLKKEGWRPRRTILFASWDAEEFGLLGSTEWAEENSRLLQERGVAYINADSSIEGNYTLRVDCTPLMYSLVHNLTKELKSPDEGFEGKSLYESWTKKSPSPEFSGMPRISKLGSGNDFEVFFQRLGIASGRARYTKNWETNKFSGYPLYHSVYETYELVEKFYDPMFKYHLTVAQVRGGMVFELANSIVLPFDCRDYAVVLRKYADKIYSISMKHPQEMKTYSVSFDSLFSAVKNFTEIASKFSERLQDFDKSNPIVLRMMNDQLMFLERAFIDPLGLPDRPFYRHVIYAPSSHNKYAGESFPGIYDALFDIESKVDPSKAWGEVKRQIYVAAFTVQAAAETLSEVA

[3] = molecular target: T2, Glutamate carboxypeptidase 2; experiment: Displacement of [177Lu]LU-PSMA-617 from PSMA in human salivary gland assessed as residual activity at 10 uM incubated for 1 hr by autoradiography analysis relative to control; assay type: tissue-based
Target sequence in this assay (Q04609 whole entry, looked up): as the sequence (Q04609 whole entry) above

[4] = molecular target: T2, Glutamate carboxypeptidase 2; experiment: Displacement of [177Lu]LU-PSMA-617 from human recombinant PSMA assessed as dissociation constant by fluorescence polarization assay
Target sequence in this assay (Q04609 whole entry): as above

[5] = molecular target: T1, N-acetylated-alpha-linked acidic dipeptidase 2; experiment: Displacement of [177Lu]LU-PSMA-617 from human recombinant GCPIII assessed as dissociation constant by fluorescence polarization assay
Target sequence in this assay (Q9Y3Q0 whole entry): as the sequence (Q9Y3Q0 whole entry) above

[6] = molecular target: T2, Glutamate carboxypeptidase 2; experiment: Displacement of [177Lu]LU-PSMA-617 from human PSMA at 10 to 100 uM incubated for 15 mins by manual size-exclusion chromatography analysis; details: dose 10-100 µM
Target sequence in this assay (Q04609 whole entry, looked up): as the sequence (Q04609 whole entry) above

[7] = organism: Homo sapiens; experiment: Ratio of Kd for binding affinity to human recombinant GCPIII assessed as dissociation constant by fluorescence polarization assay to Kd for binding affinity to human recombinant PSMA assessed as dissociation constant by fluorescence polarization assay
[8] = molecular target: T1, N-acetylated-alpha-linked acidic dipeptidase 2; experiment: Displacement of [177Lu]LU-PSMA-617 from human […] at 10 to 100 uM incubated for 15 mins by manual size-exclusion chromatography analysis; details: dose 10-100 µM
Target sequence in this assay (Q9Y3Q0 whole entry, looked up): as the sequence (Q9Y3Q0 whole entry) above

[9] = molecular target: T2, Glutamate carboxypeptidase 2; experiment: Displacement of [177Lu]LU-PSMA-617 from PSMA in human HT-1080 cells by autoradiography analysis; assay type: cell-based; details: dose 0.6-50 µM
Target sequence in this assay (Q04609 whole entry, looked up): as the sequence (Q04609 whole entry) above

Row | Kd [1] [nM] | Kd [2] [nM] | Kd [4] [nM] | Kd [5] [nM] | Structure (SMILES) | other results
1 | 6.3 | > 1000 |  |  | O=C(N[C@@H]1C[C@@H](C(=O)N[C@@H](CNC(=S)Nc2ccc3c(c2)C(=O)OC32c3ccc(O)cc3Oc3cc(O)ccc32)C(=O)O)N(C(=O)c2cnoc2C2CC2)C1)c1c[nH]nn1 | Activity [3]: 44%
2 |  |  | > 20000 | 2000 | CC(=O)NC[C@H](NC(=O)[C@@H]1C[C@@H](NC(=O)c2c[nH]nn2)CN1C(=O)c1cnoc1C1CC1)C(=O)O | 
3 | > 300 |  |  |  | O=C(N[C@@H]1C[C@@H](C(=O)N[C@@H](CCCCNC(=S)Nc2ccc3c(c2)C(=O)OC32c3ccc(O)cc3Oc3cc(O)ccc32)C(=O)O)N(C(=O)c2cnoc2C2CC2)C1)c1nc[nH]n1 | 
4 | 6.4 | 23 |  |  | O=C(N[C@@H]1C[C@@H](C(=O)N[C@@H](CCCCNC(=S)Nc2ccc3c(c2)C(=O)OC32c3ccc(O)cc3Oc3cc(O)ccc32)C(=O)O)N(C(=O)c2cnoc2-c2ccccc2)C1)c1c[nH]nn1 | 
5 |  |  | 15000 | 6400 | CC(=O)NCCCC[C@H](NC(=O)[C@@H]1C[C@@H](NC(=O)c2c[nH]nn2)CN1C(=O)c1c[nH]nn1)C(=O)O | 
6 |  |  | > 20000 | 13000 | NCCCC[C@H](NC(=O)[C@@H]1C[C@@H](NC(=O)c2c[nH]nn2)CN1C(=O)c1cnoc1C1CC1)C(=O)O | 
7 |  |  |  |  | O=C(O)CC[C@H](NC(=O)N[C@@H](CCCCNC(=O)[C@H](Cc1ccc2ccccc2c1)NC(=O)[C@H]1CC[C@H](CNC(=O)CN2CCN(CC(=O)O)CCN(CC(=O)O)CCN(CC(=O)O)CC2)CC1)C(=O)O)C(=O)O | Activity [6]: inactive
8 | > 500 |  |  |  | Cn1cc(C(=O)N[C@@H]2C[C@@H](C(=O)N[C@@H](CCCCNC(=S)Nc3ccc4c(c3)C(=O)OC43c4ccc(O)cc4Oc4cc(O)ccc43)C(=O)O)N(C(=O)c3cnoc3C3CC3)C2)nn1 | 
9 | > 300 |  |  |  | O=C1OC2(c3ccc(O)cc3Oc3cc(O)ccc32)c2ccc(NC(=S)NCCCC[C@H](NC(=O)[C@@H]3C[C@@H](n4cc(-c5c[nH]nn5)nn4)CN3C(=O)c3cnoc3C3CC3)C(=O)O)cc21 | 
10 |  |  | 13000 | 53 | O=C(NCCCCNC(=O)NCCCC[C@H](NC(=O)[C@@H]1C[C@@H](NC(=O)c2c[nH]nn2)CN1C(=O)c1cnoc1C1CC1)C(=O)O)NCCCC[C@H](NC(=O)[C@@H]1C[C@@H](NC(=O)c2c[nH]nn2)CN1C(=O)c1cnoc1C1CC1)C(=O)O | 
11 | > 2600 |  |  |  | CC(=O)N[C@@H]1C[C@@H](C(=O)N[C@@H](CCCCNC(=S)Nc2ccc3c(c2)C(=O)OC32c3ccc(O)cc3Oc3cc(O)ccc32)C(=O)O)N(C(=O)c2cnoc2C2CC2)C1 | 
12 |  |  |  |  | CCCCCCNC(=S)Nc1ccc2c(c1)C(=O)OC21c2ccc(O)cc2Oc2cc(O)ccc21 | Activity [3]: 92%
13 | > 300 |  |  |  | O=C(N[C@@H]1C[C@@H](C(=O)N[C@@H](CCCCNC(=S)Nc2ccc3c(c2)C(=O)OC32c3ccc(O)cc3Oc3cc(O)ccc32)C(=O)O)N(C(=O)c2cnoc2C2CC2)C1)c1c[nH]cn1 | 
14 | 4.5 | > 1000 |  |  | N=c1ccc2c(-c3ccc(C(=O)NCCCC[C@H](NC(=O)[C@@H]4C[C@@H](NC(=O)c5c[nH]nn5)CN4C(=O)c4cnoc4C4CC4)C(=O)O)cc3C(=O)O)c3ccc(N)c(S(=O)(=O)O)c3oc-2c1S(=O)(=O)O | 
15 | 4.8 | > 1000 |  |  | O=C(N[C@@H]1C[C@@H](C(=O)N[C@@H](CCCCNC(=S)Nc2ccc3c(c2)C(=O)OC32c3ccc(O)cc3Oc3cc(O)ccc32)C(=O)O)N(C(=O)c2c[nH]nn2)C1)c1c[nH]nn1 | 
16 | > 500 |  |  |  | Cc1[nH]nnc1C(=O)N[C@@H]1C[C@@H](C(=O)N[C@@H](CCCCNC(=S)Nc2ccc3c(c2)C(=O)OC32c3ccc(O)cc3Oc3cc(O)ccc32)C(=O)O)N(C(=O)c2cnoc2C2CC2)C1 | 
17 | 7 | 48 |  |  | O=C(N[C@@H]1C[C@@H](C(=O)NCCCCCCNC(=S)Nc2ccc3c(c2)C(=O)OC32c3ccc(O)cc3Oc3cc(O)ccc32)N(C(=O)c2cnoc2C2CC2)C1)c1c[nH]nn1 | 
18 | 87 |  |  |  | O=C(N[C@@H](CCCCNC(=S)Nc1ccc2c(c1)C(=O)OC21c2ccc(O)cc2Oc2cc(O)ccc21)C(=O)O)c1c[nH]nn1 | Ratio [7]: 20
19 |  |  | > 20000 | 3200 | CC(=O)NCCCC[C@H](NC(=O)[C@@H]1C[C@@H](NC(=O)c2c[nH]nn2)CN1C(=O)c1cnoc1C1CC1)C(=O)Nc1c[nH]nn1 | 
20 |  |  | > 20000 | 300 | O=C(N[C@@H]1C[C@@H](C(=O)O)N(C(=O)c2cnoc2C2CC2)C1)c1c[nH]nn1 | 
21 |  |  | > 20000 | 67 | CC(=O)NC[C@H](NC(=O)[C@@H]1C[C@@H](NC(=O)c2c[nH]nn2)CN1C(=O)c1c[nH]nn1)C(=O)O | 

Row | Kd [1] [nM] | Kd [2] [nM] | Kd [4] [nM] | Kd [5] [nM] | Structure (SMILES) | other results
22 | 169 | > 1000 |  |  | CC(=O)N1C[C@H](NC(=O)c2c[nH]nn2)C[C@H]1C(=O)N[C@@H](CCCCNC(=S)Nc1ccc2c(c1)C(=O)OC21c2ccc(O)cc2Oc2cc(O)ccc21)C(=O)O | 
23 |  |  | > 20000 | 12 | O=C(NCCCC[C@H](NC(=O)[C@@H]1C[C@@H](NC(=O)c2c[nH]nn2)CN1C(=O)c1cnoc1C1CC1)C(=O)O)c1c[nH]nn1 | 
24 | 15 | > 1000 |  |  | COc1ccc(C2=[N+]3C(=Cc4c(C)c(CCC(=O)NCCCC[C@H](NC(=O)[C@@H]5C[C@@H](NC(=O)c6c[nH]nn6)CN5C(=O)c5cnoc5C5CC5)C(=O)O)c(C)n4[B-]3(F)F)C=C2)cc1 | 
25 |  |  | > 20000 | 338 | O=C(NCCCC[C@H](NC(=O)[C@@H]1C[C@@H](NC(=O)c2c[nH]nn2)CN1C(=O)c1c[nH]nn1)C(=O)Nc1c[nH]nn1)c1c[nH]nn1 | 
26 | > 500 |  |  |  | Cn1nncc1C(=O)N[C@@H]1C[C@@H](C(=O)N[C@@H](CCCCNC(=S)Nc2ccc3c(c2)C(=O)OC32c3ccc(O)cc3Oc3cc(O)ccc32)C(=O)O)N(C(=O)c2cnoc2C2CC2)C1 | 
27 |  |  | > 20000 | 41 | CC(=O)NCCCC[C@H](NC(=O)[C@@H]1C[C@@H](NC(=O)c2c[nH]nn2)CN1C(=O)c1cnoc1C1CC1)C(=O)O | 
28 | 106 | > 1000 |  |  | O=C1OC2(c3ccc(O)cc3Oc3cc(O)ccc32)c2ccc(NC(=S)NCCCC[C@H](NC(=O)[C@@H]3C[C@@H](Cc4c[nH]nn4)CN3C(=O)c3cnoc3C3CC3)C(=O)O)cc21 | 
29 | 4.3 | 178 |  |  | CC(C)c1oncc1C(=O)N1C[C@H](NC(=O)c2c[nH]nn2)C[C@H]1C(=O)N[C@@H](CCCCNC(=S)Nc1ccc2c(c1)C(=O)OC21c2ccc(O)cc2Oc2cc(O)ccc21)C(=O)O | 
30 |  |  | 231 | 1.5 | O=C(NC[C@H](NC(=O)[C@@H]1C[C@@H](NC(=O)c2c[nH]nn2)CN1C(=O)c1c[nH]nn1)C(=O)O)c1c[nH]nn1 | 
31 |  |  | 1300 | 8 | O=C(NC[C@H](NC(=O)[C@@H]1C[C@@H](NC(=O)c2c[nH]nn2)CN1C(=O)c1cnoc1C1CC1)C(=O)O)c1c[nH]nn1 | 
32 |  |  | > 20000 | 17000 | NCCCC[C@H](NC(=O)[C@@H]1C[C@@H](NC(=O)c2c[nH]nn2)CN1C(=O)c1c[nH]nn1)C(=O)O | 
33 |  |  | > 20000 | 10000 | NC[C@H](NC(=O)[C@@H]1C[C@@H](NC(=O)c2c[nH]nn2)CN1C(=O)c1c[nH]nn1)C(=O)O | 
34 |  |  | > 20000 | 12 | O=C(NCCCC[C@H](NC(=O)[C@@H]1C[C@@H](NC(=O)c2c[nH]nn2)CN1C(=O)c1c[nH]nn1)C(=O)O)c1c[nH]nn1 | 
35 | 24 | 310 |  |  | O=C(N[C@@H]1C[C@@H](C(=O)NCCOCCOCCNC(=S)Nc2ccc3c(c2)C(=O)OC32c3ccc(O)cc3Oc3cc(O)ccc32)N(C(=O)c2cnoc2C2CC2)C1)c1c[nH]nn1 | 
36 | 23 | > 1000 |  |  | O=C(N[C@@H]1C[C@@H](C(=O)N[C@H](CCCCNC(=S)Nc2ccc3c(c2)C(=O)OC32c3ccc(O)cc3Oc3cc(O)ccc32)C(=O)O)N(C(=O)c2cnoc2C2CC2)C1)c1c[nH]nn1 | 
37 | 1.7 | > 1000 |  |  | O=C(N[C@@H]1C[C@@H](C(=O)N[C@@H](CNC(=S)Nc2ccc3c(c2)C(=O)OC32c3ccc(O)cc3Oc3cc(O)ccc32)C(=O)O)N(C(=O)c2c[nH]nn2)C1)c1c[nH]nn1 | Activity [8]: Active; Activity [3]: 14%; Activity [9]: Dose-Dependent Effect
38 | 12 | 332 |  |  | COC(=O)[C@H](CCCCNC(=S)Nc1ccc2c(c1)C(=O)OC21c2ccc(O)cc2Oc2cc(O)ccc21)NC(=O)[C@@H]1C[C@@H](NC(=O)c2c[nH]nn2)CN1C(=O)c1cnoc1C1CC1 | 
39 | 30 | > 1000 |  |  | CC(C)c1nocc1C(=O)N1C[C@H](NC(=O)c2c[nH]nn2)C[C@H]1C(=O)N[C@@H](CCCCNC(=S)Nc1ccc2c(c1)C(=O)OC21c2ccc(O)cc2Oc2cc(O)ccc21)C(=O)O | 
40 | > 500 |  |  |  | O=C(Cn1ccnn1)N[C@@H]1C[C@@H](C(=O)N[C@@H](CCCCNC(=S)Nc2ccc3c(c2)C(=O)OC32c3ccc(O)cc3Oc3cc(O)ccc32)C(=O)O)N(C(=O)c2cnoc2C2CC2)C1 | 
41 |  |  | > 20000 | 505 | O=C(CCOCCOCCOCCOCCOCCOCCOCCOCCOCCOCCC(=O)NCCCC[C@H](NC(=O)[C@@H]1C[C@@H](NC(=O)c2cnn[nH]2)CN1C(=O)c1cnoc1C1CC1)C(=O)O)NCCCC[C@H](NC(=O)[C@@H]1C[C@@H](NC(=O)c2cnn[nH]2)CN1C(=O)c1cnoc1C1CC1)C(=O)O | 
